Experimental data published in patent US20260124222A1, “ISOTHIAZOLYLCARBOXAMIDE COMPOUNDS AND THEIR USE IN THERAPY” (HOTSPOT THERAPEUTICS, INC., priority 2022, published 2026).

molecular target: T1, Avi-tagged FL MALT-1 (Homo sapiens, UniProt Q9UDY8); assay: MALT-1 Fluorogenic Peptide Cleavage Assay (MALT1 inhibition assay); type: biochemical; settings: Ac-LRSR-AMC peptide substrate; 30 min pre-incubation, 90 min reaction at room temperature; fluorescence
T1 construct: Avi-tagged FL MALT-1 (Pharmaron, stored at −70° C.); Avi-tag; purchased Pharmaron
T1 sequence (Q9UDY8 1-824): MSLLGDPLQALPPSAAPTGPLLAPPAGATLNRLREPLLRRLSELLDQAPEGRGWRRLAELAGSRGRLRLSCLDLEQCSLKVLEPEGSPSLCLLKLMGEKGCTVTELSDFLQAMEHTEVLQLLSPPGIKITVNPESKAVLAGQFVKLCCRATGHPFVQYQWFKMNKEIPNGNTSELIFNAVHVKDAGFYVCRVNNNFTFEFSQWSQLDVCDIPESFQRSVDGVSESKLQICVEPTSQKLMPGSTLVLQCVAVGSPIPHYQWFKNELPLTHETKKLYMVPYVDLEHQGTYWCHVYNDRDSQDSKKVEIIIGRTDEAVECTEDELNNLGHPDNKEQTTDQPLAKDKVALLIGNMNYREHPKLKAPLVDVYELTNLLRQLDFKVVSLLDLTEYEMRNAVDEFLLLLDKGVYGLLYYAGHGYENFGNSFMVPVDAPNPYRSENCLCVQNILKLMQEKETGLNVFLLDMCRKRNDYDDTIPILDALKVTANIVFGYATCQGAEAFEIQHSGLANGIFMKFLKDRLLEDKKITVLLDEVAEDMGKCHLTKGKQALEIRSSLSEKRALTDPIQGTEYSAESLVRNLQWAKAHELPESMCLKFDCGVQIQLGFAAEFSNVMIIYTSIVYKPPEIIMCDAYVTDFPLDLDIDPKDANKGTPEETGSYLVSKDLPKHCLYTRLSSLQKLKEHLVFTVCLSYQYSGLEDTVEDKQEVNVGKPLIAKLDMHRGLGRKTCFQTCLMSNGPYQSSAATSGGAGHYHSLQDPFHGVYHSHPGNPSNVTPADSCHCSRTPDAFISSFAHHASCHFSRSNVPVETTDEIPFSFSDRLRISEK
Protocol: Inhibition of MALT1 activity by a small molecule was evaluated using MALT-1 Fluorogenic Peptide Cleavage Assay. The assay utilizes a quenched AMC-labelled peptide that contains the MALT-1 recognition sequence and cleavage site (LRSR). MALT-1 mediated cleavage of the peptide relieves the quenching and leads to an increase in fluorescence at excitation (342 nm) and emission (441 nm).
The following reagents were obtained commercially and used to prepare standard reagent formulations as further described below: N-2-hydroxyethylpiperazine-N-2-ethane sulfonic acid (HEPES) (1 M, pH 7.5, stored at 4° C.), sodium citrate (stored at RT), tris(2-carboxyethyl)phosphine hydrochloride (T-CEP) (500 mM, stored at −20° C.), ethylenediaminetetraacetic acid (EDTA) (500 mM, stored at RT), dimethylsulfoxide (DMSO, stored at RT), 3-[(3-cholamidopropyl)dimethylammonio]-1-propane sulphate (CHAPS) (stored at RT), dimethylsulfoxide (DMSO), DMSO (Fisher Scientific, stored at RT), Avi-tagged FL MALT-1 (Pharmaron, stored at −70° C.), Ac-LRSR-AMC Peptide (SM Biochemicals, stored at −20° C.), and ultrapure water (MILLI-Q®).
The standard reagent formulations used in this assay were prepared and stored as follows. A 1.1 M solution of sodium citrate (161.3 g, 500 mL) was prepared and stored at room temperature. A 10% (w/v) CHAPS solution (2.0 g, 20 mL) was prepared and stored at 4° C. A 500 mM HEPES solution having pH of 6.89 was prepared from 200 mL of a 1 M HEPES solution having a pH of 7.5 using concentrated hydrochloric acid and brought to a final volume of 400 mL with MILLI-Q© H2O. The substrate, 10 mM Ac-LRSR-AMC Peptide, was prepared (10 mg, 1.370 mL DMSO) and stored at −20° C.
Compounds were plated to provide a 2% DMSO final concentration using a ProxiPlate-384 Plus F Black 384-shallow well microplate. The assay-ready plates were equilibrated to room temperature. A reaction buffer (30 mL total volume) was prepared by combining HEPES (pH 6.89, 25 mM, 1.5 mL), sodium citrate (660 mM, 18.0 mL), T-CEP (1 mM, 0.06 mL), EDTA (0.1 mM, 0.06 mL), CHAPS (0.05%, 0.15 mL), DMSO (2%, 0.6 mL), and MILLI-Q® H2O (10.23 mL; 9.63 mL when backfilled to 2% DMSO) followed by thorough mixing.
MALT-1 was thawed and kept on ice. Peptide substrate was thawed on the bench under ambient conditions. A MALT-1 enzyme working stock was prepared from Avi-tagged FL MALT-1 (40 nM in a prepared reagent volume of […]) and the reaction buffer (13.0 mL). MALT1 working stock (5 μL) was added to each well of the microplate. MALT-1 was pre-incubated with compounds for 30 minutes at room temperature.
Two substrate working stocks (Km and 10×Km) were prepared. The 1×Km substrate was prepared from Ac-LRSR-AMC Peptide (50 μM in a prepared reagent volume of […]) and the reaction buffer (6.965 mL). The 10×Km substrate was prepared from Ac-LRSR-AMC Peptide ([…] in a prepared reagent volume of 196.0 μL) and the reaction buffer (6.804 mL). The reaction was initiated by the addition of substrate working stock (5 μL, 50 μM) to Km plates and the addition of substrate working stock (5 μL 280 μM) to 10×Km plates. The plates were covered and incubated on the bench at room temperature for 90 minutes.
Fluorescence intensity was determined using a CLARIOstar microplate reader (BMG LABTECH) using the optimised AMC mode. Before taking readings, a 70% gain was applied on the neutral control well. Compound data were normalised to % Inhibition and used to plot sigmoidal concentration response curves to yield various parameters including IC50.

Compound | IC50 [nM]
Cc1cc(NC(=O)c2snc(-c3ccccc3)c2C2CC2)cn(C)c1=O [I-41] | > 2500
O=C(Nc1cncc(Cl)c1)c1snc(-c2ccccc2)c1C1CC1 [I-42, N-(5-CHLOROPYRIDIN-3-YL)-4-CYCLOPROPYL-3-PHENYLISOTHIAZOLE-5-CARBOXAMIDE] | ≤ 400
O=C(Nc1cncc(F)c1)c1snc(-c2ccccc2)c1C1CC1 [I-43, 4-CYCLOPROPYL-N-(5-FLUOROPYRIDIN-3-YL)-3-PHENYLISOTHIAZOLE-5-CARBOXAMIDE] | > 2500
COc1cncc(NC(=O)c2snc(-c3ccccc3)c2C2CC2)c1 [I-44, 4-CYCLOPROPYL-N-(5-METHOXYPYRIDIN-3-YL)-3-PHENYLISOTHIAZOLE-5-CARBOXAMIDE] | > 2500
Cc1cncc(NC(=O)c2snc(-c3ccccc3)c2C2CC2)c1 [I-45, 4-CYCLOPROPYL-N-(5-METHYLPYRIDIN-3-YL)-3-PHENYLISOTHIAZOLE-5-CARBOXAMIDE] | 1000 to 2500
CN(C)c1ccc(NC(=O)c2snc(-c3ccccc3)c2C2CC2)cn1 [I-46, 4-CYCLOPROPYL-N-(6-(DIMETHYLAMINO) PYRIDIN-3-YL)-3-PHENYLISOTHIAZOLE-5-CARBOXAMIDE] | > 2500
Cn1ncc2cc(NC(=O)c3snc(-c4ccccc4)c3C3CC3)cnc21 [I-47, 4-CYCLOPROPYL-N-(1-METHYL-1H-PYRAZOLO [3,4-B]PYRIDIN-5-YL)-3-PHENYLISOTHIAZOLE-5-CARBOXAMIDE] | 400 to 1000
Cc1cc(NC(=O)c2snc(-c3ccccc3)c2C2CC2)cnc1-n1ccnn1 [I-48, 4-CYCLOPROPYL-N-(5-METHYL-6-(1H-1,2,3-TRIAZOL-1-YL)PYRIDIN-3-YL)-3-PHENYLISOTHIAZOLE-5-CARBOXAMIDE] | ≤ 400
O=C(Nc1ccc(C(=O)N2CC(O)C2)c(Cl)c1)c1snc(-c2ncccc2Cl)c1C1CC1 [I-49, N-(3-CHLORO-4-(3-HYDROXYAZETIDINE-1-CARBONYL)PHENYL)-3-(3-CHLOROPYRIDIN-2-YL)-4-CYCLOPROPYL-ISOTHIAZOLE-5-CARBOXAMIDE] | 1000 to 2500
CN(C)C(=O)c1ncc(NC(=O)c2snc(-c3ccccc3)c2C2CC2)cc1Cl [I-50, N-(5-CHLORO-6-(DIMETHYLCARBAMOYL) PYRIDIN-3-YL)-4-CYCLOPROPYL-3-PHENYLISOTHIAZOLE-5-CARBOXAMIDE] | ≤ 400
CC(=O)N(C)c1ncc(NC(=O)c2snc(-c3ccccc3)c2C2CC2)cc1C#N [I-51, N-(5-CYANO-6-(N-METHYLACETAMIDO) PYRIDIN-3-YL)-4-CYCLOPROPYL-3-PHENYLISOTHIAZOLE-5-CARBOXAMIDE] | ≤ 400
N#Cc1cc(NC(=O)c2snc(O)c2C2CC2)cnc1-n1nccn1 [I-52, N-(5-CYANO-6-(2H-1,2,3-TRIAZOL-2-YL) PYRIDIN-3-YL)-4-CYCLOPROPYL-3-HYDROXYISOTHIAZOLE-5-CARBOXAMIDE] | > 2500
N#Cc1cc(NC(=O)c2snc(-c3ccccc3)c2C2CC2)cnc1N1CCOCC1 [I-53, N-(5-CYANO-6-MORPHOLINOPYRIDIN-3-YL)-4-CYCLOPROPYL-3-PHENYLISOTHIAZOLE-5-CARBOXAMIDE] | ≤ 400
CN1CCN(c2ncc(NC(=O)c3snc(-c4ccccc4)c3C3CC3)cc2C#N)CC1 [I-54, N-(5-CYANO-6-(4-METHYLPIPERAZIN-1-YL) PYRIDIN-3-YL)-4-CYCLOPROPYL-3-PHENYLISOTHIAZOLE-5-CARBOXAMIDE] | ≤ 400
CN(C)C(=O)c1ccc(NC(=O)c2snc(-c3ccccc3)c2C2CC2)cc1C(F)(F)F [I-55, 4-CYCLOPROPYL-N-(4-(DIMETHYL-CARBAMOYL)-3-(TRIFLUOROMETHYL) PHENYL)-3-PHENYLISOTHIAZOLE-5-CARBOXAMIDE] | ≤ 400
CC(C)c1nsc(C(=O)Nc2cnc(-n3nccn3)c(C#N)c2)c1C1CC1 [I-56, N-(5-CYANO-6-(2H-1,2,3-TRIAZOL-2-YL) PYRIDIN-3-YL)-4-CYCLOPROPYL-3-ISOPROPYLISOTHIAZOLE-5-CARBOXAMIDE] | ≤ 400
O=C(Nc1cnc(-n2nccn2)c(Cl)c1)c1nsc(-c2ccccc2)c1C(F)(F)F [I-57, N-(5-CHLORO-6-(2H-1,2,3-TRIAZOL-2-YL) PYRIDIN-3-YL)-5-PHENYL-4-(TRIFLUOROMETHYL)ISOTHIAZOLE-3-CARBOXAMIDE] | ≤ 400
O=C(Nc1cnc(C(=O)N2CC(O)C2)c(Cl)c1)c1snc(-c2ccccc2)c1C1CC1 [I-58, N-(5-CHLORO-6-(3-HYDROXYAZETIDINE-1-CARBONYL)PYRIDIN-3-YL)-4-CYCLOPROPYL-3-PHENYLISOTHIAZOLE-5-CARBOXAMIDE] | ≤ 400
O=C(Nc1ccc(C(=O)N2CC(O)C2)nc1)c1snc(-c2ccccc2)c1C1CC1 [I-59, 4-CYCLOPROPYL-N-(6-(3-HYDROXY-AZETIDINE-1-CARBONYL)PYRIDIN-3-YL)-3-PHENYLISOTHIAZOLE-5-CARBOXAMIDE] | > 2500
CC(C)c1nsc(C(=O)Nc2cnc(-n3nccn3)c(Cl)c2)c1C1CC1 [I-60, N-(5-CHLORO-6-(2H-1,2,3-TRIAZOL-2-YL) PYRIDIN-3-YL)-4-CYCLOPROPYL-3-ISOPROPYLISOTHIAZOLE-5-CARBOXAMIDE] | ≤ 400

Next, values leading:

IC50 [nM] | Compound
> 2500 | N#Cc1cc(NC(=O)c2snc(-c3ccccc3)c2C2(O)COC2)cnc1-n1nccn1 [I-61]
> 2500 | CN1Cc2cc(NC(=O)c3snc(-c4ccccc4)c3C3CC3)ccc2C1=O [I-62, 4-CYCLOPROPYL-N-(2-METHYL-1-OXOISOINDOLIN-5-YL)-3-PHENYLISOTHIAZOLE-5-CARBOXAMIDE]
> 2500 | Cn1ccc2cc(NC(=O)c3snc(-c4ccccc4)c3C3CC3)ccc2c1=O [I-98]
≤ 400 | O=C(Nc1cnc(-n2nccn2)c(Cl)c1)c1snc(-c2cccc3[nH]c(=O)ccc23)c1C(F)(F)F [I-99]
≤ 400 | N#Cc1cc(NC(=O)c2snc(-c3cccc4ncsc34)c2C2CC2)cnc1-n1nccn1 [I-100]
≤ 400 | Cn1ncc2cccc(-c3nsc(C(=O)Nc4cnc(-n5nccn5)c(C#N)c4)c3C3CC3)c21 [I-101]
≤ 400 | CN(C)c1nsc(C(=O)Nc2cnc(-n3nccn3)c(C#N)c2)c1C(F)(F)F [I-102]
≤ 400 | O=C(Nc1ccnc(C(F)(F)F)c1)c1snc(-c2cccc3ncsc23)c1C1CC1 [I-103]
≤ 400 | Cc1cc(NC(=O)c2snc(-c3cccc4ncsc34)c2C2CC2)ccn1 [I-104]
≤ 400 | COc1ccc2c(-c3nsc(C(=O)Nc4cnc(-n5nccn5)c(Cl)c4)c3C(F)(F)F)cccc2n1 [I-105]
